Data as given in patent publication US12564595B2, “Prophylactic and therapeutic pharmaceutical agent for HIV infectious diseases characterized by comprising combination of integrase inhibitor and anti-HIV agent” (Shionogi & Co., Ltd., priority 2019, dated 2026).

Experiments:
[1] = tested on: HIV mutant strain 4 (T97A/E138T/G140S/Q148H); assay: Test Example 2: resistance evaluation test (HeLa-CD4 reporter), mutant strain 4; format: cell-based; conditions: FC=EC50 of mutant strain/EC50 of wild strain; HeLa-CD4 cells
Method: (§1) A serial dilution series of test samples in 96-well microplates was prepared (50 […]).
(§2) 2.5×10^4/mL of HeLa-CD4 cell suspension was dispensed into each of the microplates containing test sample, in the amount of 100 μL/well, and HIV virus liquid (wild strain and mutant strain) was then dispensed in an amount of 50 μL/well. Mixing was performed using a plate mixer and culturing was performed for three days in a CO2 incubator. After removing the cultured supernatant of each well by suction, 100 μL of the cell solution buffer in the reporter measurement kit was dispensed thereto, and freezing was conducted in a refrigerator (−80° C.). The plates frozen in the refrigerator were defrosted at room temperature, then mixed using a plate mixer and centrifuged for 5 min at 1,200 rpm. The supernatant of each well was divided to 96-well microplates (BLACK) in the amount of 20 μL in each case. The chemiluminescence reagent in the reporter assay kit was dispensed in the amount of 100 μL in each case, and, after reacting for about 1 h at room temperature, the amount of luminescence was measured using a MicroBeta TRILUX.
(§3) The degree of resistance (fold change (FC)) of each mutant strain was also calculated using the following formula. FC=EC50 of mutant strain/EC50 of wild strain (Results)

[2] = Test Example 8: metabolic stability test; format: in vitro ADME, human; conditions: pooled human liver microsomes, 30 min at 37° C., NADPH, compound concentration 0.5 μmol/L
How it was run: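 Pooled human liver microsomes (0.5 mg protein/mL, Tris-HCl pH 7.4) incubated with compound and 1 mmol/L NADPH for 0 or 30 min at 37° C. After methanol/acetonitrile quench, remaining parent was quantified by LC/MS/MS or SPE/MS and expressed as % of the 0 min amount.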

[3] = biological target: T1, voltage-gated sodium channel (Nav 1.5 channel) (Homo sapiens, UniProt Q14524); assay: Test Example 14: Nav test (patch clamp, HEK cells); format: cell-based; conditions: HEK cells expressing Nav 1.5 channel, whole cell patch clamp
T1 construct: expressed in transfected cells; host or cells: HEK cells
T1 sequence (Q14524 whole entry): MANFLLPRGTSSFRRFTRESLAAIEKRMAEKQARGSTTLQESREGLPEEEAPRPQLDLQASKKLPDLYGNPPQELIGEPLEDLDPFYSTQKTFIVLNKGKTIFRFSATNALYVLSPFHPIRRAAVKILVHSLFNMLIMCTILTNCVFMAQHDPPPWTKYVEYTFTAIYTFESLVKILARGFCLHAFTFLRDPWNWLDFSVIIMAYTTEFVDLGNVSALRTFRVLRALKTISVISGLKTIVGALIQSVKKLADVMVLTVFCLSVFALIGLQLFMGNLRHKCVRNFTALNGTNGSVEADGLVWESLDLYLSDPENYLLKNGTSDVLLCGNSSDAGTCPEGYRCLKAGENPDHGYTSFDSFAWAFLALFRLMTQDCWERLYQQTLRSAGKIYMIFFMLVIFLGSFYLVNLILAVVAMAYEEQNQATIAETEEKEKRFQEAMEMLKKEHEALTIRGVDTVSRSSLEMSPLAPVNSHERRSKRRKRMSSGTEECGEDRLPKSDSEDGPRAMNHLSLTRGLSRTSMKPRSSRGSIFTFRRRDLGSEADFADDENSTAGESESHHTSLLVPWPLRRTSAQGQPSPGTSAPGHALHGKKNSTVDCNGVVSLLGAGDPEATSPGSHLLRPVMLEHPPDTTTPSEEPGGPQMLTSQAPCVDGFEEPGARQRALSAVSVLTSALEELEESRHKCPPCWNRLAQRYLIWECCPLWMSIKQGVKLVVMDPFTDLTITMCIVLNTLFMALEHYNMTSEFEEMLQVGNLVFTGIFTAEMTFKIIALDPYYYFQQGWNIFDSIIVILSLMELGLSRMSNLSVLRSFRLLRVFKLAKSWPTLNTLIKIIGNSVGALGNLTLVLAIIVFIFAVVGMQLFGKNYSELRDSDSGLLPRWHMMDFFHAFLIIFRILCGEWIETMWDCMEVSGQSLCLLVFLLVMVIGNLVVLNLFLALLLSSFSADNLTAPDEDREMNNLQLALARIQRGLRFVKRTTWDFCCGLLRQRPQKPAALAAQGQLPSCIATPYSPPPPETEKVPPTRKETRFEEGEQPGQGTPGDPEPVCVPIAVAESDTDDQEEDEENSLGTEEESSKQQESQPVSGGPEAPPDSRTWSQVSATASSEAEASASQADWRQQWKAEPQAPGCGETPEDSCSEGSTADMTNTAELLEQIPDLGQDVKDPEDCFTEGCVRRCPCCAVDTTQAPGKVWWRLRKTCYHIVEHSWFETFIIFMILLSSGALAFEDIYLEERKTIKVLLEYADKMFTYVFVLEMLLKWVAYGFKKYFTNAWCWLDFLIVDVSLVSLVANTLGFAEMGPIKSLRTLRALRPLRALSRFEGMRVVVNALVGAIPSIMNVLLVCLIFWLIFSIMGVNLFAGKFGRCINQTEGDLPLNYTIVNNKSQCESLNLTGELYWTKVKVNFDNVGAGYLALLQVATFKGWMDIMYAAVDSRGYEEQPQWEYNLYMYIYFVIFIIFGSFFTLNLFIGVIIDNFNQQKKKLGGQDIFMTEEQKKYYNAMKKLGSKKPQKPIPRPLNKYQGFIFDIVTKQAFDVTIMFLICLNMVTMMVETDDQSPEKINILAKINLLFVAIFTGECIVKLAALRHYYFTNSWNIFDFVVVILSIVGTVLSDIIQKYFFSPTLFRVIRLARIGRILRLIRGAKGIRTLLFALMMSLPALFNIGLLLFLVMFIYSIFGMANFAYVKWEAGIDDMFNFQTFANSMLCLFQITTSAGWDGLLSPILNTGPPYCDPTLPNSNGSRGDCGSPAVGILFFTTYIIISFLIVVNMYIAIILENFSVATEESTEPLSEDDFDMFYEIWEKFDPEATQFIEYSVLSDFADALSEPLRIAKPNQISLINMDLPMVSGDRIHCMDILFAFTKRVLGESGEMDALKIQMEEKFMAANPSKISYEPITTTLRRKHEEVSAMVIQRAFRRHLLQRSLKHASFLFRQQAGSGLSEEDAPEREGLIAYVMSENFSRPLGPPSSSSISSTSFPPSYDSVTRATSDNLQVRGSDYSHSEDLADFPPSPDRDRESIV
Method: Using a fully automatic patch clamp system (QPatch: Sophion Bioscience A/S), by the whole cell patch clamp method, the cells were maintained at a membrane potential of −100 mV and the induced INa when a −10 mV depolarization stimulus was applied for 20 msec was recorded. […] From the INa obtained, using analysis software (QPatch: Sophion Bioscience A/S), the absolute value of the maximum peak current was measured, with reference to the current value at the maintained membrane potential.

[4] = tested on: HIV mutant strain 1 (E138K/G140S/Q148H/N155H); assay: Test Example 2: resistance evaluation test (HeLa-CD4 reporter), mutant strain 1; format: cell-based; conditions: FC=EC50 of mutant strain/EC50 of wild strain; HeLa-CD4 cells
How it was run: (§4)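 HeLa-CD4 reporter cells were infected with wild-type or mutant HIV in the presence of serially diluted compound and cultured 3 days. Cell lysates were read by chemiluminescent reporter assay after about 1 h at room temperature. Fold change was calculated as mutant EC50 divided by wild-type EC50.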

[5] = tested on: HIV mutant strain 2 (E92Q/E138T/G140S/Q148H); assay: Test Example 2: resistance evaluation test (HeLa-CD4 reporter), mutant strain 2; format: cell-based; conditions: FC=EC50 of mutant strain/EC50 of wild strain; HeLa-CD4 cells
How it was run: as §4

[6] = tested on: HIV mutant strain 3 (E92Q/E138K/G140S/Q148H); assay: Test Example 2: resistance evaluation test (HeLa-CD4 reporter), mutant strain 3; format: cell-based; conditions: FC=EC50 of mutant strain/EC50 of wild strain; HeLa-CD4 cells
Method: as §1, §2, §3

HIV [7] = assay: Test Example 3: test for confirmation of combined use effect; format: cell-based; set-up: key to D value (dosewise additivity value): <-0.1 synergy, -0.1 to 0.1 additive, >0.1 antagonism
Excerpt: The two compounds in respect of which the effect of combined use was desired to be examined were mixed in various ratios, and the anti-HIV activity (50% HIV inhibiting concentration) for each combination was found by the method of test example 1. […] A brief description of the method of calculating the D value is given below.
The D value that is found by evaluating the anti-HIV activity of respective combinations of M concentrations of compound X1 and N concentrations of compound X2 is calculated by the following mathematical expression 1.
The effect of combined use was evaluated in terms of the D value in accordance with the following criteria • −0.5 to −0.2: strong synergetic effect • −0.2 to −0.1: weak synergetic effect • […]: additive synergetic effect • 0.1 to 0.2: weak antagonism • 0.2 to 0.5: strong antagonism

HIV [8] = assay: Test Example 16: anti-HIV activity in the presence of human serum protein (MT-4 cells); format: cell-based; conditions: 100% extrapolation value, PS=4×(EC50 with 25% human serum protein/EC50 with no human serum protein)
Method: A stage dilution series of the test samples was created on a 96-well microplate (50 μL/well).
Aliquots of human serum protein solution (human serum protein concentration 50%) were dispensed in the amount of 100 μL/well to a 96-well microplate containing the test sample. This was then left to stand for 1 h at room temperature. Culture medium in the amount of 100 μL/well in each case was dispensed to a serum-free plate for control purposes. Aliquots of MT-4 cells in the amount of 3.0×10^5/well and HIV virus liquid in the amount of 3 μL/well were mixed for the necessary number of wells and reacted for 1 h at 37° C. After the reaction, the cell suspension was centrifuged and the supernatant discarded; aliquots of infected cells were distributed to culture medium in the amount of 50 μL/well and were dispensed in the amount of 50 μL/well in each case into the wells of a 96-well microplate containing test samples and human serum protein (human serum protein concentration: 25%). Mixing was performed using a plate mixer and culturing was performed for four days with a CO2 incubator. […] MTT(3-(4, 5-dimethylthiazol-2-yl)-2, 5-diphenyltetrazolium bromide) liquid in the amount of 30 μL was dispensed to each of the wells. The reaction was performed for 1 h in a CO2 incubator. 150 μL supernatant was removed to avoid aspirating cells from the wells. 150 μL of cell solution was added and thorough mixing was performed, using a plate mixer, until all the cells were dissolved. The optical absorbance on the mixed plate was measured at two wavelengths, namely, 560 nm/690 nm, using a microplate reader.
Next, the potency shift (PS) was calculated, using the following formula. The PS is the value of the human serum protein concentration, extrapolated to 100%.

HIV [9] = assay: microbe, parasite or virus in culture; format: cell-based; conditions: Human immunodeficiency virus 1, MT4, 96 h, read-out: EC50 (50% HIV inhibition concentration), MT-4 cells, HIV, cultured four days, MTT; compounds of formula (I) of (A)
How it was run: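 MT-4 cells infected with HIV in the presence of serially diluted test samples and cultured four days at CO2 incubator conditions. Cell viability measured by MTT reduction (1 h), solubilised formazan read at 560/690 nm.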

[10] = combination with compound (B) Compound C (CAI)
[11] = combination with compound (B) Darunavin (PI)
[12] = combination with compound (B) Darunavir (PI)
[13] = combination with compound (B) GS-6207 (CAI)
[14] = combination with compound (B) GSK2838232 (maturation inhibitor)
[15] = combination with compound (B) I′-189 (INLAI)
[16] = combination with compound (B) Lilpiperine (polymerase inhibitor)
[17] = combination with compound (B) Ramipzin (3TC) (polymerase inhibitor)
[18] = combination with compound (B) Rilpivirine (polymerase inhibitor)
[19] = combination with compound (B) VM-1500 (polymerase inhibitor)

CN1C(=O)c2c(O)c(=O)c(C(=O)NCc3ccc(F)cc3F)cn2N2CCCC[C@@H]12 [Compound I-032]
FC in respect of mutant strain 4 (T97A/E138T/G140S/Q148H) [1]: compound I-032: 10 | Remaining percentage [2]: 103% | ratio of maximum peak current (INa) on application of compound to that on application of medium [3]: 92.1% | FC in respect of mutant strain 1 (E138K/G140S/Q148H/N155H) [4]: 51 | FC in respect of mutant strain 2 (E92Q/E138T/G140S/Q148H) [5]: 18 | FC in respect of mutant strain 3 (E92Q/E138K/G140S/Q148H) [6]: Compound I-032: 7.7

CCN1C(=O)c2c(O)c(=O)c(-c3nnc(Cc4ccc(F)cc4F)s3)cn2N2C[C@@H](C)C[C@@H]12 [II-109]
D value (dosewise additivity value) (HIV [7]; [10]): 0.071 | effect of combined use (HIV [7]; [10]): Additive (−0.1 to −0.1: additive synergetic effect) | D value (dosewise additivity value) (HIV [7]; [11]): −0.143 | effect of combined use (HIV [7]; [12]): Weak synergy (−0.2 to −0.1: weak synergetic effect) | D value (dosewise additivity value) (HIV [7]; [13]): −0.059 | effect of combined use (HIV [7]; [13]): Additive (−0.1 to −0.1: additive synergetic effect) | D value (dosewise additivity value) (HIV [7]; [14]): −0.054 | effect of combined use (HIV [7]; [14]): Additive (−0.1 to −0.1: additive synergetic effect) | D value (dosewise additivity value) (HIV [7]; [15]): 0.056 | effect of combined use (HIV [7]; [15]): Additive (−0.1 to −0.1: additive synergetic effect) | effect of combined use (HIV [7]; [16]): Additive (−0.1 to −0.1: additive synergetic effect) | D value (dosewise additivity value) (HIV [7]; [17]): −0.145 | effect of combined use (HIV [7]; [17]): Weak synergy (−0.2 to −0.1: weak synergetic effect) | D value (dosewise additivity value) (HIV [7]; [18]): −0.096 | D value (dosewise additivity value) (HIV [7]; [19]): −0.094 | effect of combined use (HIV [7]; [19]): Additive (−0.1 to −0.1: additive synergetic effect) | potency shift (PS) in the presence of human serum protein (HIV [8]): 56 | Remaining percentage [2]: 98.3% | ratio of maximum peak current (INa) on application of compound to that on application of medium [3]: 93.3% | FC in respect of mutant strain 1 (E138K/G140S/Q148H/N155H) [4]: 4.1 | EC50 (HIV [9]): 1.2 nM | FC in respect of mutant strain 2 (E92Q/E138T/G140S/Q148H) [5]: 2.5

CCN1C(=O)c2c(O)c(=O)c(-c3nnc(Cc4c(F)cc(F)cc4F)s3)cn2N2CCCC[C@@H]12 [Compound I-007]
D value (dosewise additivity value) (HIV [7]; [10]): 0.059 | effect of combined use (HIV [7]; [10]): Additive (−0.1 to −0.1: additive synergetic effect) | D value (dosewise additivity value) (HIV [7]; [11]): −0.096 | effect of combined use (HIV [7]; [12]): Additive (−0.1 to −0.1: additive synergetic effect) | D value (dosewise additivity value) (HIV [7]; [13]): −0.040 | effect of combined use (HIV [7]; [13]): Additive (−0.1 to −0.1: additive synergetic effect) | D value (dosewise additivity value) (HIV [7]; [14]): 0.017 | effect of combined use (HIV [7]; [14]): Additive (−0.1 to −0.1: additive synergetic effect) | D value (dosewise additivity value) (HIV [7]; [15]): 0.053 | effect of combined use (HIV [7]; [15]): Additive (−0.1 to −0.1: additive synergetic effect) | effect of combined use (HIV [7]; [16]): Additive (−0.1 to −0.1: additive synergetic effect) | D value (dosewise additivity value) (HIV [7]; [17]): −0.231 | effect of combined use (HIV [7]; [17]): Strong synergy (−0.5 to −0.2: strong synergetic effect) | D value (dosewise additivity value) (HIV [7]; [18]): −0.054 | D value (dosewise additivity value) (HIV [7]; [19]): −0.097 | effect of combined use (HIV [7]; [19]): Additive (−0.1 to −0.1: additive synergetic effect) | potency shift (PS) in the presence of human serum protein (HIV [8]): 116 | Remaining percentage [2]: 97.7% | ratio of maximum peak current (INa) on application of compound to that on application of medium [3]: 103% | FC in respect of mutant strain 1 (E138K/G140S/Q148H/N155H) [4]: 3.8 | EC50 (HIV [9]): 1.6 nM | FC in respect of mutant strain 2 (E92Q/E138T/G140S/Q148H) [5]: 6.9

COC[C@@H]1CC[C@H]2N(C)C(=O)c3c(O)c(=O)c(C(=O)NCc4cccc(Cl)c4F)cn3N12 [II-026]
D value (dosewise additivity value) (HIV [7]; [10]): 0.043 | effect of combined use (HIV [7]; [10]): Additive (−0.1 to −0.1: additive synergetic effect) | D value (dosewise additivity value) (HIV [7]; [11]): −0.137 | effect of combined use (HIV [7]; [12]): Weak synergy (−0.2 to −0.1: weak synergetic effect) | D value (dosewise additivity value) (HIV [7]; [13]): −0.043 | effect of combined use (HIV [7]; [13]): Additive (−0.1 to −0.1: additive synergetic effect) | D value (dosewise additivity value) (HIV [7]; [14]): −0.061 | effect of combined use (HIV [7]; [14]): Additive (−0.1 to −0.1: additive synergetic effect) | D value (dosewise additivity value) (HIV [7]; [15]): 0.056 | effect of combined use (HIV [7]; [15]): Additive (−0.1 to −0.1: additive synergetic effect) | effect of combined use (HIV [7]; [16]): Additive (−0.1 to −0.1: additive synergetic effect) | D value (dosewise additivity value) (HIV [7]; [17]): −0.232 | effect of combined use (HIV [7]; [17]): Strong synergy (−0.5 to −0.2: strong synergetic effect) | D value (dosewise additivity value) (HIV [7]; [18]): −0.077 | D value (dosewise additivity value) (HIV [7]; [19]): −0.155 | effect of combined use (HIV [7]; [19]): Weak synergy (−0.2 to −0.1: weak synergetic effect) | potency shift (PS) in the presence of human serum protein (HIV [8]): 364 | Remaining percentage [2]: 86% | ratio of maximum peak current (INa) on application of compound to that on application of medium [3]: 79% | FC in respect of mutant strain 1 (E138K/G140S/Q148H/N155H) [4]: 10 | FC in respect of mutant strain 2 (E92Q/E138T/G140S/Q148H) [5]: 6.9
